{"source": "patent US7105698B2", "about": "“Process for the separation of R(-)-and S(+)-5-[2-[[2-(2-ethoxyphenoxy)ethyl]amino]propyl]-2- methoxybenzenesulfonamide” (Ragactives, S.L., priority 2002, dated 2006)", "origin": "cited, not measured here", "conditions": "ratio R(−)-I versus S(+)-I; prior studies", "data": [{"smiles": "CCOc1ccccc1OCCN[C@H](C)Cc1ccc(OC)c(S(N)(=O)=O)c1", "note": "[R(−)-I, R(−)-5-[2-[[2-(2-ethoxyphenoxy)ethyl]amino]propyl]-2-methoxybenzenesulfonamide]", "values": [{"measurement": "pharmacological action of R(−)-I relative to its S(+)-I enantiomer", "result": "up to 320 times"}]}]}
